{"source": "patent US12017917B2", "about": "“Composition, particulate materials and methods for making particulate materials” (THE UNIVERSITY OF QUEENSLAND, priority 2015, dated 2024)", "key": {"[1]": {"tested_on": "Escherichia coli (E. coli)", "assay": "In vitro antibacterial activity of VAN formulations (OD 600 nm)", "type": "cell-based", "conditions": "VAN content 25 μg ml^−1, after 18 h", "description": "The use of nanoparticles as a delivery vehicle for antibiotics provides a promising strategy through prolonged drug circulation half-life, increased availability of drugs interacting with membrane molecules and promoted sustained drug release. VAN is an antibiotic useful for the treatment of a number of bacterial infections since it inhibits the cell wall synthesis in susceptible bacteria. […] The in vitro antibacterial activity of VAN, MHS200-VAN and RMHS200-VAN was evaluated by monitoring the optical density (OD) at 600 nm of a bacterial suspension. E. coli (1×10^6 CFU mL^−1) was incubated in Luria-Bertani (LB) medium in a 1.5 ml centrifuge tube at various concentrations of VAN for 18 h. […] This value reduced to 20 μg ml^−1 for RMHS200-VAN which is lower than the dosage used with VAN conjugated MCM-41 (200 μg ml^−1) in in-vitro E. coli culture at 18 h. In a separate experiment, MHS200-VAN, RMHS200-VAN and free VAN with the same VAN content of 25 μg ml^−1 were incubated with 1×10^6 CFU mL^−1 E. Coli in LB media and OD was measured as a function of time."}, "[2]": {"assay": "UV protection of ivermectin (HPLC)", "type": "physicochemical", "conditions": "free or loaded into particles, UV irradiation 3 h", "description": "To investigate the UV protection properties of the silica particles toward ivermectin these nano-formulations as well as pure (free) ivermectin were treated under UV irradiation for 3 h. The samples before and after UV irradiation were analysed using high performance liquid chromatography (HPLC) to identify their compositions. […] This may result from the fact that ivermectin is only partially loaded into the internal cavity of the MSHS-SS particles, resulting in only partial protection."}, "E. coli [3]": {"tested_on": "E. coli", "assay": "In vitro antibacterial activity of lysozyme formulations (OD)", "type": "cell-based", "conditions": "E. coli 5×10^6 CFU mL^−1, 24 h", "description": "The in vitro antibacterial activity of free lysozyme and lysozyme loaded silica particles formulated using the above procedure were compared by the optical density (OD) measurement. E. coli (5×10^6 CFU mL^−1) was incubated with various concentrations of lysozyme and corresponding lysozyme loaded silica particles for 24 h. […] In contrast, the MIC of free lysozyme towards E. coli cannot be achieved even at the concentration as high as […]."}, "E. coli [4]": {"tested_on": "E. coli", "assay": "Long-term bacterial inhibition, bacteria kinetic test under batch culture", "type": "cell-based", "conditions": "lysozyme 700 μg·mL^−1, 3 days"}, "[5]": {"assay": "Release test of nano-spinosad in water (UV-Vis 248 nm)", "type": "physicochemical", "conditions": "25° C.", "description": "In a release test, 2.67 mg nano-spinosad-X (containing 1 mg spinosad) was dispersed in 1 ml distilled water, respectively. The mixtures were kept at 25° C. incubator at 200 rpm. The supernatants were collected at different time and the released amount of spinosad was measured and evaluated by using a UV-Vis spectrophotometer at a wavelength of 248 nm. The release amount of pure spinosad in water was also tested using the same procedure.\nThe release profile of both pure spinosad and nano-spinosad were tested in water. […] On the other hand, for pure spinosad, only 2.4% of spinosad was released at 5 min while the cumulative release is less than 8% even at 540 min. […] Consequently, the release behaviour of spinosad is improved compared to the pure spinosad. The fast release of a higher concentration of spinosad is expected to be beneficial for the development of an “effective-immediately” nano-spinosad formulation."}, "[6]": {"tested_on": "cattle tick, Rhipicephalus microplus", "assay": "Larval Immersion Test on cattle tick larvae", "type": "in vivo", "conditions": "Assay 3, 24 h", "description": "The in vitro effects of spinosad and nano-spinosad on the cattle tick, Rhipicephalus microplus were evaluated. The test was conducted at Biosecurity Sciences Laboratory (Queensland Government) using a standard Larval Immersion Test using organic solvent to extract the actives.\nThe test was conducted at Biosecurity Sciences Laboratory (Queensland Government) using a standard Larval Immersion Test. In the Larval Immersion Test, both spinosad and nano-Spinsad were firstly dissolved in organic solvent (2% Triton X-100 in acetone) to extract the actives for stock solution (10 mg/ml) and then be diluted in water. […] Three assays were conducted to narrow the LC ranges."}, "[7]": {"assay": "UV-stability test of nano-spinosad (HPLC)", "type": "physicochemical", "conditions": "UV 365 nm, 2 h", "description": "In this test, 1.2 mg pure spinosad and 4.2 mg nano-spinosad-0.4 (containing 1.2 mg spinosad) were added in two transparent quartz containers, respectively. The using of quartz containers is to minimized the shielding of UV light from the containers. Each of the sample was placed under the UV light with a wavelength of 365 nm and power of 17.77 mV cm^−3. All samples were irradiated by the UV light for 2 hours. After the irradiation, the spinosad and its degradation products were extracted by acetonitrile (ACN) for three times and the final concentration was diluted to. 0.5 mg/ml dispersed in 1 ml distilled water. The UV degradation conditions of both pure spinosad and nano-spinosad-0.4 were tested by high-performance liquid chromatography (HPLC) using ACN as the mobile phase.\nThe UV stability of nano-spinosad was studied. Both spinosad and nano-spinosad were irradiated under UV light (wavelength 365 nm, 17.77 mV/cm^3) for 2 h followed by HPLC which was used to monitor the product after UV treatment utilizing ACN as the extraction media and mobile phase. […] An additional peak at retention time of 1.5 min was also observed in the pure spinosad group, which can be attributed to the degraded product. This observation is in accordance with literature reports, indicating spinosad itself is UV labile."}}}
{"compound": "CN[C@H](CC(C)C)C(=O)N[C@H]1C(=O)N[C@@H](CC(N)=O)C(=O)N[C@H]2C(=O)N[C@H]3C(=O)N[C@H](C(=O)N[C@H](C(=O)O)c4cc(O)cc(O)c4-c4cc3ccc4O)[C@H](O)c3ccc(c(Cl)c3)Oc3cc2cc(c3O[C@@H]2O[C@H](CO)[C@@H](O)[C@H](O)[C@H]2O[C@H]2C[C@](C)(N)[C@H](O)[C@H](C)O2)Oc2ccc(cc2Cl)[C@H]1O", "note": "[free VAN, vancomycin]", "values": [{"measurement": "bacterial growth over time (OD)", "setting": "[1]", "value": "re-growth of bacteria"}]}
{"compound": "ivermectin [Free ivermectin]", "values": [{"measurement": "degradation of ivermectin after UV irradiation (HPLC)", "setting": "[2]", "value": "fully degraded"}]}
{"compound": "lysozyme [free lysozyme]", "values": [{"measurement": "MIC towards E. coli", "setting": "E. coli [3]", "value": "> 2", "unit": "mg"}, {"measurement": "bacterial growth over time (OD)", "setting": "E. coli [4]", "value": "time dependent bacterial growth"}]}
{"compound": "spinosad", "values": [{"measurement": "spinosad released", "setting": "[5]; at 5 min", "value": 2.4, "unit": "%"}, {"measurement": "cumulative release of spinosad", "setting": "[5]; at 540 min", "value": "less than 8%"}, {"measurement": "LC50 value to larval cattle ticks", "setting": "[6]", "value": 54, "unit": "ppm"}, {"measurement": "LC99 value to larval cattle ticks", "setting": "[6]", "value": 196, "unit": "ppm"}, {"measurement": "UV degradation (HPLC degradation peak)", "setting": "[7]", "value": "UV labile"}]}
